≈ marks a conversion by molar mass, not a printed value.

What all share (experiment): microbe, parasite or virus in culture
One experiment relates to P. aeruginosa ATCC 27853. The experiment is classed as cell-based. Conditions: Pseudomonas aeruginosa, ATCC27853, read-out: Minimum inhibitory concentration, P. aeruginosa ATCC 27853.
For the next experiment, the system named is P. aeruginosa CDC-0095. The format is cell-based. Conditions: Pseudomonas aeruginosa, CDC0095, read-out: Minimum inhibitory concentration, P. aeruginosa CDC-0095.
The test system of a further experiment is P. aeruginosa CDC-0090. The experiment is classed as cell-based. Conditions: Pseudomonas aeruginosa, CDC0090, read-out: Minimum inhibitory concentration, P. aeruginosa CDC-0090.
The subject of another experiment is A. baumannii CDC-0033. The experiment is classed as cell-based. Conditions: Acinetobacter baumannii, CDC0033, read-out: Minimum inhibitory concentration (MIC), A. baumannii CDC-0033.
In a further experiment the test system is A. baumannii ATCC 19606. The format is cell-based. Conditions: Acinetobacter baumannii, ATCC19606, read-out: Minimum inhibitory concentration (MIC), A. baumannii ATCC 19606.
Experiment [1] relates to B. humptydooensis ATCC BAA-2767. The experiment is classed as cell-based. Conditions: Burkholderia humptydooensis, ATCCBAA2767, read-out: Minimum inhibitory concentration (MIC), B. humptydooensis ATCC BAA-2767.
The next experiment has as its system A. baumannii 1258916. The experiment is classed as cell-based, Acinetobacter baumannii. Conditions: Acinetobacter baumannii, 1258916, read-out: Minimum inhibitory concentration (MIC), A. baumannii 1258916.
A further experiment deals with A. baumannii ATCC 17978. The experiment is classed as cell-based. Conditions: Acinetobacter baumannii, ATCC17978, read-out: Minimum inhibitory concentration (MIC), A. baumannii ATCC 17978.
Another experiment relates to P. aeruginosa ATCC 35151. The experiment is classed as cell-based. Conditions: Pseudomonas aeruginosa, ATCC35151, read-out: Minimum inhibitory concentration, P. aeruginosa ATCC 35151.

Consider `O=C(O)c1c(F)ccc2c1OB(O)[C@@H](NC(=O)[C@H](NC(=O)N1CCN(C3CCN(C(=O)c4cc(F)c(O)c(O)c4Cl)CC3)C1=O)c1ccc(P(=O)(O)O)cc1)C2` (single isomer, unassigned) [Example 495], for which the MIC in the experiment with P. aeruginosa ATCC 27853 was less than 1 µg/mL; in the experiment with P. aeruginosa CDC-0095, 32 to 64 µg/mL (≈ 38.9 to 77.9 µM); in the experiment on P. aeruginosa CDC-0090, less than 1 µg/mL; with A. baumannii CDC-0033, less than 1 µg/mL; with A. baumannii ATCC 19606 it was less than 1 µg/mL; in experiment [1], less than 1 µg/mL. The MIC in the experiment on A. baumannii 1258916, in the experiment with A. baumannii ATCC 17978 and with P. aeruginosa ATCC 35151 was less than 1 µg/mL throughout.

As for `O=C(O)c1c(F)ccc2c1OB(O)[C@@H](NC(=O)[C@H](NC(=O)N1CCN(C3CCN(C(=O)Nc4ccc(O)c(O)c4Cl)CC3)C1=O)c1ccc(P(=O)(O)O)cc1)C2` (single isomer, unassigned) [Example 497], the MIC is 2 to 4 µg/mL (≈ 2.44 to 4.88 µM) in the experiment on P. aeruginosa ATCC 27853; 32 to 64 µg/mL (≈ 39.1 to 78.2 µM) in the experiment on P. aeruginosa CDC-0095; 8 to 16 µg/mL (≈ 9.77 to 19.5 µM) with P. aeruginosa CDC-0090; less than 1 µg/mL with A. baumannii CDC-0033; less than 1 µg/mL in the experiment with A. baumannii ATCC 19606; less than 1 µg/mL in experiment [1]. The MIC in the experiment on A. baumannii 1258916, in the experiment on A. baumannii ATCC 17978 and in the experiment on P. aeruginosa ATCC 35151 was less than 1 µg/mL throughout.

Regarding `O=C(O)c1c(F)ccc2c1OB(O)[C@@H](NC(=O)[C@H](NC(=O)N1CCN(C3CCN(C(=O)Nc4cc(F)c(O)c(O)c4Cl)CC3)C1=O)c1ccc(P(=O)(O)O)cc1)C2` (single isomer, unassigned) [Example 500], the MIC was less than 1 µg/mL in the experiment on P. aeruginosa ATCC 27853; less than 1 µg/mL in the experiment with P. aeruginosa CDC-0095; 2 to 4 µg/mL (≈ 2.39 to 4.78 µM) with P. aeruginosa CDC-0090; less than 1 µg/mL with A. baumannii CDC-0033; less than 1 µg/mL in the experiment on A. baumannii ATCC 19606; less than 1 µg/mL in experiment [1]. Further, the MIC in the experiment with A. baumannii 1258916, in the experiment on A. baumannii ATCC 17978 and in the experiment on P. aeruginosa ATCC 35151 was less than 1 µg/mL throughout.

On to `O=C(O)c1c(F)ccc2c1OB(O)[C@@H](NC(=O)[C@H](NC(=O)N1CCN(C3CCN(C(=O)c4ccc(O)c(O)c4Cl)CC3)C1=O)c1ccc(P(=O)(O)O)cc1)C2` [Example 494, (R)-3-((R)-2-(3-(1-(2-chloro-3,4-dihydroxybenzoyl)piperidin-4-yl)-2-oxoimidazolidine-1-carboxamido)-2-(4-phosphonophenyl)acetamido)-7-fluoro-2-hydroxy-3,4-dihydro-2H-benzo[e][1,2]oxaborinine-8-carboxylic acid], for which the MIC in the experiment with P. aeruginosa ATCC 27853 was less than 1 µg/mL; with P. aeruginosa CDC-0095 it was 8 to 16 µg/mL (≈ 9.95 to 19.9 µM); in the experiment on P. aeruginosa CDC-0090, less than 1 µg/mL; in the experiment with A. baumannii CDC-0033, less than 1 µg/mL; in the experiment on A. baumannii ATCC 19606 it was less than 1 µg/mL; in [1] it was less than 1 µg/mL. Besides, the MIC in the experiment with A. baumannii 1258916, with A. baumannii ATCC 17978 and with P. aeruginosa ATCC 35151 was less than 1 µg/mL throughout.

In the case of `O=C(O)c1c(F)ccc2c1OB(O)[C@@H](NC(=O)[C@H](NC(=O)N1CCN(C3CCN(C(=O)c4cc(O)c(O)c(Cl)c4)CC3)C1=O)c1ccc(P(=O)(O)O)cc1)C2` [Example 496, (R)-3-((R)-2-(3-(1-(3-chloro-4,5-dihydroxybenzoyl)piperidin-4-yl)-2-oxoimidazolidine-1-carboxamido)-2-(4-phosphonophenyl)acetamido)-7-fluoro-2-hydroxy-3,4-dihydro-2H-benzo[e][1,2]oxaborinine-8-carboxylic acid], the MIC in the experiment on P. aeruginosa ATCC 27853 was less than 1 µg/mL; in the experiment on P. aeruginosa CDC-0095, 8 to 16 µg/mL (≈ 9.95 to 19.9 µM); with P. aeruginosa CDC-0090, less than 1 µg/mL; with A. baumannii CDC-0033, less than 1 µg/mL; in the experiment with A. baumannii ATCC 19606 it was less than 1 µg/mL; in experiment [1] it was less than 1 µg/mL. Besides, the MIC with A. baumannii 1258916, in the experiment on A. baumannii ATCC 17978 and in the experiment with P. aeruginosa ATCC 35151 was less than 1 µg/mL throughout.

With `O=C(O)c1c(F)ccc2c1OB(O)[C@@H](NC(=O)[C@H](NC(=O)N1CCN(Cc3ccc(O)c(O)c3Cl)C(=O)C1=O)c1cc(F)c(P(=O)(O)O)c(F)c1)C2` [Example 502, (R)-3-((R)-2-(4-(2-chloro-3,4-dihydroxybenzyl)-2,3-dioxopiperazine-1-carboxamido)-2-(3,5-difluoro-4-phosphonophenyl)acetamido)-7-fluoro-2-hydroxy-3,4-dihydro-2H-benzo[e][1,2]oxaborinine-8-carboxylic acid], the MIC in the experiment on P. aeruginosa ATCC 27853 is less than 1 µg/mL; in the experiment with P. aeruginosa CDC-0095, 2 to 4 µg/mL (≈ 2.59 to 5.19 µM); in the experiment on P. aeruginosa CDC-0090, less than 1 µg/mL; with A. baumannii CDC-0033, less than 1 µg/mL; with A. baumannii ATCC 19606, less than 1 µg/mL; in experiment [1], less than 1 µg/mL. Moreover, the MIC in the experiment with A. baumannii 1258916, with A. baumannii ATCC 17978 and in the experiment with P. aeruginosa ATCC 35151 was less than 1 µg/mL throughout.

For `O=C(NCCN1CCN(C(=O)N[C@@H](C(=O)N[C@H]2Cc3ccc(F)c(C(=O)O)c3OB2O)c2ccc(P(=O)(O)O)cc2)C(=O)C1=O)c1ccc(O)c(O)c1Cl` [Example 503, (R)-3-((R)-2-(4-(2-(2-chloro-3,4-dihydroxybenzamido)ethyl)-2,3-dioxopiperazine-1-carboxamido)-2-(4-phosphonophenyl)acetamido)-7-fluoro-2-hydroxy-3,4-dihydro-2H-benzo[e][1,2]oxaborinine-8-carboxylic acid], the MIC with P. aeruginosa ATCC 27853 was less than 1 µg/mL; in the experiment on P. aeruginosa CDC-0095, less than 1 µg/mL; in the experiment with P. aeruginosa CDC-0090, less than 1 µg/mL; in the experiment on A. baumannii CDC-0033 it was 2 to 4 µg/mL (≈ 2.53 to 5.05 µM); in the experiment on A. baumannii ATCC 19606, less than 1 µg/mL; in experiment [1], less than 1 µg/mL. Further, the MIC in the experiment on A. baumannii 1258916, in the experiment with A. baumannii ATCC 17978 and in the experiment on P. aeruginosa ATCC 35151 was less than 1 µg/mL throughout.

As for `O=C(O)c1cccc2c1OB(O)[C@@H](NC(=O)[C@H](NC(=O)N1CCN(Cc3cc(F)c(O)c(O)c3Cl)C(=O)C1=O)c1ccc(P(=O)(O)O)cc1)C2` [Example 504, (R)-3-((R)-2-(4-(2-chloro-5-fluoro-3,4-dihydroxybenzyl)-2,3-dioxopiperazine-1-carboxamido)-2-(4-phosphonophenyl)acetamido)-2-hydroxy-3,4-dihydro-2H-benzo[e][1,2]oxaborinine-8-carboxylic acid], the MIC (in the experiment on P. aeruginosa ATCC 27853; in the experiment with P. aeruginosa CDC-0095; in the experiment with P. aeruginosa CDC-0090; in the experiment with A. baumannii CDC-0033; in the experiment on A. baumannii ATCC 19606; in [1]) was less than 1 µg/mL in each case. For the same compound, the MIC in the experiment with A. baumannii 1258916, in the experiment with A. baumannii ATCC 17978 and with P. aeruginosa ATCC 35151 was less than 1 µg/mL in each case.

Turning to `O=C(O)c1c(F)ccc2c1OB(O)[C@@H](NC(=O)C(NC(=O)N1CCN(S(=O)(=O)c3ccc(O)c(O)c3Cl)C1=O)c1ccc(P(=O)(O)O)cc1)C2` (stereo partly drawn) [Example 505, (3R)-3-(2-(3-((2-chloro-3,4-dihydroxyphenyl)sulfonyl)-2-oxoimidazolidine-1-carboxamido)-2-(4-phosphonophenyl)acetamido)-7-fluoro-2-hydroxy-3,4-dihydro-2H-benzo[e][1,2]oxaborinine-8-carboxylic acid], the MIC (in the experiment with P. aeruginosa ATCC 27853; in the experiment on P. aeruginosa CDC-0095; in the experiment on P. aeruginosa CDC-0090; in the experiment with A. baumannii CDC-0033; in the experiment with A. baumannii ATCC 19606; in experiment [1]) was less than 1 µg/mL each time. Further, the MIC in the experiment on A. baumannii 1258916, with A. baumannii ATCC 17978 and in the experiment with P. aeruginosa ATCC 35151 was less than 1 µg/mL throughout.

Regarding `O=C(O)c1c(F)ccc2c1OB(O)[C@@H](NC(=O)[C@H](NC(=O)N1CCN(S(=O)(=O)c3ccc(O)c(O)c3Cl)C1=O)c1ccc(P(=O)(O)O)cc1)C2` [Example 506, (R)-3-((R)-2-(3-((2-chloro-3,4-dihydroxyphenyl)sulfonyl)-2-oxoimidazolidine-1-carboxamido)-2-(4-phosphonophenyl)acetamido)-7-fluoro-2-hydroxy-3,4-dihydro-2H-benzo[e][1,2]oxaborinine-8-carboxylic acid], the MIC (in the experiment with P. aeruginosa ATCC 27853; in the experiment on P. aeruginosa CDC-0095; with P. aeruginosa CDC-0090; in the experiment with A. baumannii CDC-0033; with A. baumannii ATCC 19606; in experiment [1]) was less than 1 µg/mL each time. Further, the MIC in the experiment with A. baumannii 1258916, with A. baumannii ATCC 17978 and in the experiment with P. aeruginosa ATCC 35151 was less than 1 µg/mL throughout.

As for `O=C(O)c1cccc2c1OB(O)[C@@H](NC(=O)[C@H](NC(=O)N1CCN(S(=O)(=O)c3ccc(O)c(O)c3Cl)C1=O)c1ccc(P(=O)(O)O)cc1)C2` [Example 509, (R)-3-((R)-2-(3-((2-chloro-3,4-dihydroxyphenyl)sulfonyl)-2-oxoimidazolidine-1-carboxamido)-2-(4-phosphonophenyl)acetamido)-2-hydroxy-3,4-dihydro-2H-benzo[e][1,2]oxaborinine-8-carboxylic acid], the MIC (in the experiment on P. aeruginosa ATCC 27853; with P. aeruginosa CDC-0095; with P. aeruginosa CDC-0090; in the experiment on A. baumannii CDC-0033; with A. baumannii ATCC 19606; in [1]) was less than 1 µg/mL throughout. Moreover, the MIC in the experiment with A. baumannii 1258916, in the experiment on A. baumannii ATCC 17978 and in the experiment with P. aeruginosa ATCC 35151 was less than 1 µg/mL each time.

The values above are taken from patent publication US20240270762A1, “PENICILLIN-BINDING PROTEIN INHIBITORS” (priority 2021, published 2024).
